The source of these data is US9708305B2, “Substituted 1,2,3,4-tetrahydroisoquinoline derivatives for the treatment of hormone-dependent diseases” (UNIVERSITÉ LAVAL, priority 2013, dated 2017).

The structures appear in SMILES notation.

For experiment [1], the system named is alkaline phosphatase (ALP) activity in Saos-2 cells. As to the kind of experiment: Alkaline phosphatase (ALP) activity in Saos-2 cells. It is filed as cell-based. The protocol:
ALP is an enzyme that releases inorganic phosphate from different intracellular substrates such as pyrophosphate and pyridoxal 5′-phosphate.^63 The inorganic phosphate is used in the formation of hydroxyapatite crystals which are then inserted in the extracellular protein scaffold to form the solid part of bone tissue.
Saos-2 cells were treated similarly as reported in the cell proliferation assay. The cells were seeded at a density of 2 000 cells/well and were treated with the inhibitors and the reference compounds for 3 days. The alkaline phosphatase (ALP) activity was measured using Sensolyte® pNPP Alkaline Phosphatase Assay Kit *Colorimetric* (AnaSpec, Fremont, Calif.) following the manufacturer's protocol. Briefly, after the 3 days of treatment, the cells were washed twice with washing buffer (provided with the kit) and lysed with 0.2% Triton X-100. The cell lysates were centrifuged and the supernatants were used to determine the ALP activity. The supernatants were deposed in a 96-well plate and incubated 30 min with a p-nitrophenyl phosphate solution (provided with the kit). The absorbance at 405 nm was measured with a Thermo max microplate reader (Molecular Devices, Sunnyvale, Calif.). The control (culture media+DMSO) is set to 100% of alkaline phosphatase activity.

A further experiment concerns T-47D cells. As to the kind of experiment: T-47D cell proliferation (estrogenicity / cytotoxicity), MTS. It is filed as cell-based.
The next experiment deals with T1, steroid sulfatase (STS) (Homo sapiens, UniProt P08842).
T1 construct: expressed in transfected cells; host or cells: HEK-293 cells stably transfected with STS (G418 selection), obtained from Dr. Van Luu-The; used as freeze-thaw homogenate
T1 sequence (P08842 22-583): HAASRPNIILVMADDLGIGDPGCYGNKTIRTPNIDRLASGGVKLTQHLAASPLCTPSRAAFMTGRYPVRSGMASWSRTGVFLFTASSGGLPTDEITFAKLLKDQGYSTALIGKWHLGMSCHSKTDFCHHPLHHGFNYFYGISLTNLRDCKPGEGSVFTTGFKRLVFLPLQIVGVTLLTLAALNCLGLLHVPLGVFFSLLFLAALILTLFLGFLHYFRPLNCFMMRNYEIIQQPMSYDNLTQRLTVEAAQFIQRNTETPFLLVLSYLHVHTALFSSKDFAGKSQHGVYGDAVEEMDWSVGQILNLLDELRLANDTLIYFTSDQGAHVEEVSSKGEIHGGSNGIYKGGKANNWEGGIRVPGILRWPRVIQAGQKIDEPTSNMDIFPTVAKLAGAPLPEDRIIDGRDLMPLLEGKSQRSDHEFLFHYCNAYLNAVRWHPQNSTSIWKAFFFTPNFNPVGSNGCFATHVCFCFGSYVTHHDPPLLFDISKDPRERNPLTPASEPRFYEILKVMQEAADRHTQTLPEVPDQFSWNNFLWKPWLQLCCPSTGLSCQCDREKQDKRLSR
As to the kind of experiment: Steroid sulfatase (STS) inhibition, [3H]-E1S to [3H]-E1, homogenate of transfected HEK-293 cells. It is filed as biochemical. The following applies: transformation of E1S into E1 in homogenate of HEK-293 cells transfected with STS; read-out: Steroid Sulfatase Inhibition IC50. The method, then:
To test STS inhibition, we used homogenated HEK-293 cells overexpressing STS and evaluated the capacity of our compounds to inhibit the conversion of [^3H]-E1S into [^3H]-E1. […] This is outlined in FIG. 5.
An enzymatic assay previously described was used for the inhibition of the transformation of estrone sulfate (E1S) to estrone (E1) by STS.^72 Briefly, the transfected HEK-293 cells were homogenized by repeated (5 times) cycles of freezing (−80° C.) and thawing on ice (4° C.). The homogenates were then incubated for 2 h at 37° C. (shaking water bath) with or without inhibitors (0.01 μM-1 μM) in presence of [^3H]-E1S (9 nM), adjusted to 1 μM with E1S, in a Tris-acetate buffer (pH 7.4) containing 5 mM EDTA and 10% glycerol. After the incubation, 1 mL of xylene was added to each tube and the solutions were then centrifuged at 3000 rpm for 20 min to separate the organic ([^3H]-E1) and aqueous ([^3H]-E1S) phases. Once 500 μL of each phase was added to 10 mL of Biodegradable Counting Scintillant, the radioactivity of samples was recorded using a Wallac 1411 Liquid Scintillation Counter. The percentage of inhibition was determined by comparison with the control (buffer+homogenate+[^3H]-E1S) which was set to 0% of inhibition. IC50 value was obtained using GraphPad Prism 5 (GraphPad Software, La Jolla, Calif.).

In a further experiment the test system is Saos-2 (ER+) cells. In words: Proliferative activity on Saos-2 (ER+) cells, phenol library. To be noted: 1 μM (stated for reference compounds); 7 days; control 100%. It is filed as cell-based. The protocol:
Estrogens are known to have a beneficial effect on bones. […] The phenol derivatives 3′-EO-09 to 3′-EO-11 and 3′-EO-14 to 3′-EO-17 were tested on the osteoblast-like cell line Saos-2 to further evaluate their SERM capacity (FIG. 13A).
The osteoblast-like Saos-2 cells were maintained in culture flasks (175 cm^2 growth area, BD Falcon) at 37° C. in a 5% CO2 humidified atmosphere and grown in McCoy's 5A medium supplemented with 10% fetal bovine serum (FBS), penicillin (100 IU/mL) and streptomycin (100 μg/mL). Penicillin/streptomycin mix, L-Glutamine, normal and charcoal-stripped FBS were purchased from Wisent, Inc. (St-Bruno, QC, Canada), phenol-red free McCoy's 5A was purchased from PromoCell (Heidelberg, Germany). Chemicals tested were first dissolved in DMSO and subsequent dilutions were done in the cell culture medium. The final concentration of DMSO in the culture medium was 0.1% or less. For the proliferation assay, the […] FBS in the culture medium was replaced with 10% charcoal-stripped FBS. The cells were seeded in 96-well plates at a density of 10 000 cells/well and allowed to attach 24 h. After 24 h, the phenolic compounds diluted in culture medium were added to the wells and replaced every 2 days for 7 days of treatment. As reported above, MTS was used as an indirect colorimetric measurement of cell proliferation according to the manufacturer's instructions, except the plate were incubated 2 h instead of 4 h.

A word on the IC50: it is the midpoint of a concentration-inhibition curve. Regarding `C[C@]12CC[C@@H]3c4ccc(O)cc4CC[C@H]3[C@@H]1CC[C@@H]2O` [E2, 17β-estradiol, reference compound], the “Bone cells Saos-2 (ER+) SERM effect Alkaline phosphatase activity (%)” value in experiment [1] (0.1 nM) stood at 100%. Besides, the “stimulation of ALP activity in presence of ICI-164,384 or MPP + PHTPP” value in experiment [1] (0.1 nM compound, antagonists 1 μM, 3 days) was “completely blocked the stimulation”. Further, the T-47D cell proliferation result in the experiment on T-47D cells (0.1 nM, control 100%, 7 days) was “approximately 160%”. Besides, the “Breast cancer cells T-47D (ER+) Agonist activity (%)” value in the experiment with T-47D cells (1 μM, in % of control (100%; 0.1 nM of estradiol)) is recorded as 100%. Also, the IC50 on steroid sulfatase (STS) was greater than 1000 nM. Also, the “proliferation of Saos-2 cells” value in the experiment with Saos-2 (ER+) cells came out at 144%.
